Like-named read-outs stand apart in the source and are kept apart here. Where a SMILES comes first, the peptide text is derived from it. [ ]: non-standard residue; d: D form. The star is where a group is joined. Fmoc = O=C(OCC1c2ccccc2-c2ccccc21)*; 12Ado = NCCCCCCCCCCCC(=O)O; StBu = CC(C)(C)S*
Experiment: MTT assay, cytotoxicity of the peptide
Assay type: cell-based
Details: read-out: cell viability
Source text: MTT assay was applied to evaluate the cytotoxicity effect of the peptide on HeLa, MCF-7, SK-N-MC, HEK293 and RAW264.7 cells (FIG. 12).

Measured: viability

CC(C)[C@H](NC(=O)[C@H](CCCCN)NC(=O)[C@H](CCCCN)NC(=O)[C@H](CCCCN)NC(=O)[C@H](CCCCN)NC(=O)[C@H](CCCCN)NC(=O)[C@@H]1CCCN1C(=O)OCC1c2ccccc2-c2ccccc21)C(=O)NCC(=O)N[C@@H](Cc1c[nH]cn1)C(=O)N[C@@H](Cc1c[nH]cn1)C(=O)N[C@@H](Cc1c[nH]cn1)C(=O)N[C@@H](Cc1c[nH]cn1)C(=O)NCCCCCCCCCCCC(=O)N[C@@H](CSSC(C)(C)C)C(=O)N[C@@H](Cc1c[nH]cn1)C(=O)N[C@@H](Cc1c[nH]cn1)C(=O)N[C@@H](CSSC(C)(C)C)C(=O)N[C@@H](CSSC(C)(C)C)C(=O)N[C@@H](Cc1c[nH]cn1)C(=O)N[C@@H](Cc1c[nH]cn1)C(=O)N[C@@H](CSSC(C)(C)C)C(=O)NCC(=O)N[C@@H](CO)C(=O)N1CCC[C@H]1C(=O)N[C@@H](Cc1c[nH]cn1)C(=O)N[C@@H](Cc1c[nH]cn1)C(=O)N[C@@H](CC(=O)O)C(=O)O [peptide_13, Fmoc-PKKKKKVG-HHHH (SEQ ID NO: 31)-C12-CstBuHHCstBuCstBuHHCstBuGSPHHD (SEQ ID NO: 39)] (Fmoc-PKKKKKVGHHHH[12Ado]C(StBu)HHC(StBu)C(StBu)HHC(StBu)GSPHHD-OH; C-terminus assumed)
> 80%: human, HEK293 cells, peptide concentration up to 4 μM | human, HeLa cells, peptide concentration up to 8 μM | human, MCF-7 cells, peptide concentration up to 8 μM | human, SK-N-MC cells, peptide concentration up to 4 μM | mouse, RAW264.7 cells, peptide concentration up to 4 μM

From US20250297035A1, “A PEPTIDE AND THE SELECTION METHOD THEREOF” (THE HONG KONG UNIVERSITY OF SCIENCE AND TECHNOLOGY, priority 2021, published 2025)
